How the values were obtained:
[1] = tested on: Arabidopsis thaliana seeds (ecotype Col-0); assay: Seed treatment at pre-germination stage, plant growth (rosette fresh weight, projected rosette area); assay type: in vivo; settings: for concentration resulting in highest increase in fresh weight: screening at concentration gradient 0-100 μM, rosettes 22 DAS, seeds soaked 12 hrs
Experimental: Stock solutions of NOSH or NOSH-ASA were each prepared by initial dissolution in 100% DMSO. From each stock solution, treatment compositions at a 0-100 μM concentration gradient (diluted in 0.1% v/v DMSO) were prepared. Arabidopsis thaliana seeds (ecotype Col-0) were treated at their pre-germination stage with different concentrations of NOSH or NOSH-aspirin solutions (0-100 μM concentration gradient) by soaking the seeds in Petri dishes at room temperature and in the dark. After 12 hrs, the seeds were air dried for 2-3 hrs. Four seeds per pot were sown in soil medium and stratified at 4° C. for 4 days to achieve germination uniformity. Then the pots were transferred to the growth room and allowed to grow under controlled conditions of 22° C., and a 16-hr day (100-120 μmol m^−2 s^−1)/8-hr night regime for 22 days (d). Nine Days After Stratification (DAS), one seedling, which had the projected rosette area closest to the median area of the treatment, was selected from the four seedlings sown per pot. Four independent experiments were carried out using a minimum of 6-8 independent plants as replicates per experiment. Projected Rosette Area (PRA) was determined by taking pictures of the rosettes 22 days after stratification (DAS). The pictures were subsequently analyzed using ImageJ software (http://rsb.info.nih.gov/ij/) to measure the size of each plant. Represented rosette sizes were calculated by taking the average of the individual plant per repeat and then per treatment. The same rosettes were used also for fresh weight measurements. In this connection it is noted that in preliminary experiments no substantial differences between the ratio of fresh weight and the ratio of dry weight under optimum soil water content was observed. Statistical analysis was performed with SAS (Version 9.4 of the SAS System for windows 7 64 bit by using the mixed model analysis. Copyright C 2002-2012 SAS Institute Inc. Cary, NC, USA (www.sas.com). Seeds were treated by seed soaking for 12 hr with NOSH at 50 μM. Four seeds were then sown in soil medium within a pot and allowed to grow for 22 days under the conditions described above.

[2] = Dissolution of the compounds for the stock solution; assay type: physicochemical; settings: stock solution of 100 mM; visible observation
Experimental: In order to select the optimum concentration of NOSH and NOSH-ASA, a concentration gradient was performed. To achieve the gradient, a stock solution of 100 mM was prepared. […] Therefore, it was decided to prepare a stock solution using 100% DMSO and then dilute the composition to 0.1% DMSO.

[3] = tested on: tomato seeds (4 different varieties); assay: Tomato seed priming under salt stress conditions; assay type: in vivo; settings: for fruit yield per plant: 50 μM in 0.1% DMSO, seeds soaked 12 hours, vs untreated, hydroprimed, solvent-treated seeds
Experimental: A experiment has been carried out, whereby the effect of NOSH-A pre-treatment of tomato seeds was examined under salt stress conditions. The treatments were as follows: • Untreated tomato seeds (4 different varieties—CV1-4) • Hydroprimed seeds (soaked in dH2O) • NOSH-A control treated seeds (soaked in 0.1% DMSO) • NOSH-A primed seeds NOSH-A was initially prepared in a stock solution of 50 mM using DMSO. The working solution was made by diluting the stock in water to reach a final concentration of 50 μM in 0.1% DMSO. Seed priming was performed by soaking the seeds in NOSH-A solution for 12 hours at 25° C. Then the seeds were placed in gauze under the laminar flow for air-drying, till reaching their initial weight. The seeds were sown in plastic seedling trays (1 seed per pot) filled with sterile soil, covered with a transparent film, and let to germinate in a growth chamber room under certain conditions of 24/20° C. day/night temperatures, 60-70% RH, with a photosynthetic photon flux density of 120 μmol m^2 s^−1 and a 16/8-h photoperiod. At day 7 after sowing, seedlings were transplanted into square plastic pots filled with sterilized pot soil, transferred into a glasshouse, and let to grow until day 24. Growing plants were watered three times per week. Plants were then watered with saline solution (7.8-12.0 dS/m), while controls were watered with dH2O, until fruiting. A total of four harvests were carried out, with yield data being the total of the four harvesting events. All analyses were carried out using six independent plants per treatment.

[4] = tested on: baby spinach cultivars (Sunangel RZ, Scarne F1PV-1656); assay: Baby spinach seed priming, growth under heat stress; assay type: in vivo; settings: day 37-40° C., 50 μM seed priming 12 hours
Experimental: NOSH-A was initially prepared in a stock solution of 50 mM using DMSO. The working solution was made by diluting the stock in water to reach a final concentration of 50 μM in 0.1% DMSO. Seed priming was performed by soaking the seeds of two baby spinach cultivars (Sunangel RZ, Scarne F1PV-1656) in NOSH-A solution for 12 hours at 25° C. Then the seeds were placed in gauze under the laminar flow for air-drying, till reaching their initial weight. Seeds were sown in the soil in a commercial greenhouse (FIG. 6a), and let to grow until day 30. Average day temperature ranged between 37-40° C., while night temperature ranged between 21-23° C. Growing plants were watered three times per week. All agronomic analyses were carried out using a minimum of nine independent plants per treatment, while survival percentage was calculated from a total of 300 plants per treatment.

[5] = tested on: Arabidopsis thaliana seeds (ecotype Col-0); assay: Leaf 3 area and epidermal cell analysis of plants from treated seeds; assay type: in vivo; settings: 50 μM at seed level, carrier 0.1% DMSO
Experimental: For the leaf area analysis, 3rd true leaves were harvested from all the replicates and then the leaves were cleared in 100% ethanol, mounted in lactic acid on microscope slides, and photographed. Leaf areas were measured with the ImageJ software (http://rsb.info.nih.gov//ij/). Abaxial epidermal cells were drawn with a DMLB microscope (Leica) fitted with a drawing tube and a differential interference contrast objective. Drawings were scanned and analyzed using automated image analysis algorithms (Andriankaja et al. 2012). Subsequently, drawings were used to measure average cell size, from which the total pavement cell number was calculated. The stomatal index was defined as the percentage of stomata in relation to the number of epidermal cells. Statistical analysis was performed with SAS (Version 9.4 of the SAS System for windows 7 64 bit by using the mixed model analysis. Copyright C 2002-2012 SAS Institute Inc. Cary, NC, USA (www.sas.com). Finally, the ratio of leaf 3 area, pavement cell area, pavement cell number and stomata index measured on plants treated at seed level with 50 μM NOSH compared with plants received from carrier-treated seeds (seeds treated with 0.1% DMSO) were determined, the results of which is provided in FIG. 4 (values are averages of three biological repeats, with each repeat consisting of 6-8 plants).

[6] = tested on: plants from treated seeds; assay: Stress protection: seed priming by vacuum infiltration, plants left un-watered (drought); assay type: in vivo
Experimental: Seeds were treated with a NOSH composition comprising 30% methanol and the priming application method was vacuum infiltration (90 sec). […] Plants were growth on optimum condition until 37 days and then were left un-watered for 7 days. Observation on plant phenotype was performed and interesting differences on the plant appearance were recorded. […] This supported the conclusion that NOSH compounds enhance plant tolerance, (probably, however, without being bound to this hypothesis, by avoiding the accumulation of stress-related pigments such as anthocyanin).

[7] = control and high salinity conditions, 50 μM seed priming

Row | Structure (SMILES) | concentration resulting in highest increase in fresh weight [1] [µM] | dissolution directly in 0.1% DMSO [2] | fruit dry weight [3, 7] | fruit fresh weight [3, 7] | fruit yield per plant ([3]; control conditions) | fruit yield per plant ([3]; high salinity conditions (7.8-12.0 dS/m)) | average leaf area [4] | total plant leaf area [4] | survival percentage of plants ([4]; vs untreated, hydroprimed, solvent-treated seeds) | growth of the leaves ([1]; 50 μM, seeds soaked 12 hr, 22 DAS, vs no NOSH treatment) | fresh weight of rosettes, ratio to carrier-treated seeds ([1]; 50 μM, seeds soaked 12 hr, 22 days, p value 0.0001) | projected rosette area (PRA) ratio, treated seeds vs carrier-treated seeds ([1]; seeds exposed before germination, carrier 0.1% DMSO) [fold] | promoting growth following treatment at the seed level ([1]; treatment of seeds before germination) | leaf 3 area, ratio to carrier-treated seeds [5] | pavement cell area, ratio to carrier-treated seeds [5] | pavement cell number, ratio to carrier-treated seeds [5] | stomata index, ratio to carrier-treated seeds [5] | seed germination after soaking ([6]; NOSH composition comprising 30% methanol, soaking 4 h, 12 h and 24 h, attributed to high percentage of methanol) | plant phenotype / tolerance after drought ([6]; composition with 30% methanol, vacuum infiltration 90 sec, un-watered 7 days after 37 days, vs carrier-treated drought plants)
1 | O=C(CCCO[N+](=O)[O-])Oc1ccccc1C(=O)Oc1ccc(-c2cc(=S)ss2)cc1 [NOSH-ASA] | 10 | did not completely dissolve | significant improvements | significant improvements | significant improvement | significant improvement | significant improvements | significant improvements | clear improvement | – | – | – | – | – | – | – | – | – | –
2 | O=C(CCCO[N+](=O)[O-])Oc1ccc(-c2cc(=S)ss2)cc1 [NOSH] | 50 | did not completely dissolve | – | – | – | – | – | – | – | increased growth of the leaves | statistically significant (p values indicated in the Figures) increase | > 1.5 | more effective in promoting growth as compared to NOSH-NSAID | statistically significant (p values indicated in the Figures) increase | statistically significant (p values indicated in the Figures) increase | statistically significant (p values indicated in the Figures) increase | statistically significant (p values indicated in the Figures) increase | no seed germination | greener and with less anthocyanin on the leaves

Source: patent publication US20260231848A1, “A METHOD OF TREATING SEEDS AND SEEDS PRODUCED THEREBY” (RESEARCH FOUNDATION OF THE CITY UNIVERSITY OF NEW YORK, priority 2023, published 2026)
